System: Balb/C mice
Experiment: 5-fluorouracil (5-FU) induced bone marrow suppression in mice
Format: in vivo, mouse
Protocol: This example illustrates the effect of CT1501R on 5-fluorouracil (5-FU) induced bone marrow suppression in mice. We determined if CT1501R influenced the time required for hematopoietic reconstitution following cytotoxic chemotherapy in a murine model. Female Balb/C mice (VAF, Charles River Laboratories, 6-8 wks of age approximately 17.3-18.5 g) were treated with 5-FU at adose of 200 mg/kg intraperitoneally (i.p.) in experiment 1 or […] in experiment 2. CT1501R or vehicle control was given at a dose of 100 μg/kg i.p. bid starting 1 day prior to 5-FU and was continued until the last mice were sacrificed on day 13 in experiment 1 and day 15 in experiment 2. Controls included mice treated with CT1501R or vehicle without 5-FU. Mice (4 per group) were sacrificed starting 2 days after 5-FU by cardiac puncture under halothane anesthesia followed by cervical dislocation and had total white blood cell counts and differential counts performed. Platelet counts were performed using phase-contrast microscopy in duplicate. Femurs were harvested and the number of granulocyte-macrophage colony forming cells (CFU-GM) per femur were measured using a standard assay (Terry Fox Laboratories, Vancouver, British Columbia) using pokeweed mitogen spleen conditioned medium as the growth factor. Each femur was plated separately in triplicate and the mean and means for each experimental point was calculated. Standard deviations used for statistical analysis were deviations of the mean number of colonies measured for each femur.
Experiment 2 was similar to experiment 1 with the following exceptions: (1) the dose of 5-FU was decreased to 185 mg/kg; (2) daily blood draws were performed between days 10 and 15; and (3) platelet counts were performed.

C[C@@H](O)CCCCn1c(=O)c2c(ncn2C)n(C)c1=O [CT1501R, (R)-1-(5-hydroxyhexyl)-3,7-dimethylxanthine]
mouse survival, Kaplan-Meier plot (5-FU treated mice, FIG. 14): improved survival | rise in ANC and CFU-GM/femur associated with vehicle injections (animals that did not receive 5-FU): prevented both the rise in ANC and rise in CFU-GM/femur | increase in the number of CFU-GM/femur compared to control animals (during hematopoietic recovery): approximately two-fold | CFU-GM/femur (experiment 1, day 13, vs vehicle control and day 0 animals): significantly more CFU-GM/femur on day 13 | mean ±SD ANC (experiment 1, day 13 after 5-FU): 440±17 /mm^3 | WBC of 5-FU treated mice (experiment 1, days 6 and 10): significantly lower in vehicle treated controls than in CT1501R treated mice | number of cells per femur (experiment 2): increased during hematopoietic recovery compared to control animals | WBC (experiment 2, FIG. 10): significantly higher WBC's | platelet count nadir and rate of recovery (experiment 2, FIG. 11): increased compared to vehicle control animals | neutrophil recovery (experiment 2, FIG. 12): accelerated | WBC and ANC (mice without 5-FU, i.p. bid): remained within 1 SD of control values | adverse effects (mice without 5-FU, i.p. bid): no apparent adverse effects

— patent US5567704A, “R-enatiomerically pure hydroxylated xanthine compounds to treat baldness” (priority 1995, dated 1996)
